Experimental data from patent publication EP0631668B1, “DETERMINATION OF BINDING AFFINITY USING MAGNETICALLY-LABELED BINDING MEMBERS” (ABBOTT LABORATORIES, priority 1992, dated 1993).

Target: T1, streptavidin-coated paramagnetic microparticle (Streptomyces avidinii, UniProt P22629)
T1 construct: purchased Advanced Magnetics, Cambridge, MA
Experiment: Magnetically assisted avidin-biotin binding assay (competitive inhibition, balance readout)
Conditions: free biotin concentration 125 nanograms/milliliter (80 µl assayed); 12 milligrams at 0 nanograms/milliliter; Figure 6
Procedure: The following reagents and samples were used in a binding assay:
The magnetically-labeled reagent was a streptavidin-coated paramagnetic microparticle (Advanced Magnetics, Cambridge, MA; average one micron in diameter, with 5x10^8 particles per mg, supplied as a 5 mg/ml suspension).
Incubation was continued at 37° C for an additional 45 minutes. The wells were then emptied and washed with PBS using a wash bottle.
The magnetically-labeled reagent was first combined with the test sample, thereby forming a reaction mixture which was incubated for one hour at 37° C. […] The unbound magnetically-labeled reagent was removed from the reaction mixture by means of magnetic attraction.

T1 sequence (P22629 25-183): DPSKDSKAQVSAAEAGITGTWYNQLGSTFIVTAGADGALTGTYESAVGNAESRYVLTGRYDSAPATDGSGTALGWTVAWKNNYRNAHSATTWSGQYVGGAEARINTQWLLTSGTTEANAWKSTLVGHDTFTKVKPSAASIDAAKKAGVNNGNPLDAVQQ

O=C(O)CCCC[C@@H]1SC[C@@H]2NC(=O)N[C@@H]21 [biotin]
force change detected by the balance means: zero
